# Biological target: T1, Kv1.3 potassium channel (Homo sapiens, UniProt P22001)
# T1 construct: expressed in transfected cells
# Experiment: Kv1.3 potassium channel blocker activity, automated whole-cell patch clamp (Patchliner) in CHO-K1 cells stably expressing Kv1.3
# Assay type: cell-based
# Details: 30 nM-100 μM
# Method: This assay is used to evaluate the disclosed compounds' activities as Kv1.3 potassium channel blockers.
# CHO-K1 cells stably expressing Kv1.3 were grown in DMEM containing 10% heat-inactivated FBS, 1 mM sodium pyruvate, 2 mM L-glutamine, and G418 (500 μg/ml). Cells were grown in culture flasks at 37° C. in a 5% CO2-humidified incubator.
# The cells were bathed in an extracellular solution containing 140 mM NaCl, 4 mM KCl, 2 mM CaCl2), 1 mM MgCl2, 5 mM glucose, 10 mM HEPES; pH adjusted to 7.4 with NaOH; 295-305 mOsm. The internal solution contained 50 mM KCl, 10 mM NaCl, 60 mM KF, 20 mM EGTA, 10 mM HEPES; pH adjusted to 7.2 with KOH; 285 mOsm. All compounds were dissolved in DMSO at 30 mM. Compound stock solutions were freshly diluted with external solution to concentrations of 30 nM, 100 nM, 300 nM, 1 μM, 3 μM, 10 μM, 30 μM and 100 μM. The highest content of DMSO (0.3%) was present in 100 μM.
# The currents were evoked by applying 100 ms depolarizing pulses from −90 mV (holding potential) to +40 mV were applied with 0.1 Hz frequency. Control (compound-free) and compound pulse trains for each compound concentration applied contained 20 pulses. 10-second breaks were used between pulse trains (see Table A below).
# Whole-cell current recordings and compound application were enabled by means of an automated patch clamp platform Patchliner (Nanion Technologies GmbH). EPC 10 patch clamp amplifier (HEKA Elektronik Dr. Schulze GmbH) along with Patchmaster software (HEKA Elektronik Dr. Schulze GmbH) was used for data acquisition. Data were sampled at 10 kHz without filtering. Passive leak currents were subtracted online using a P/4 procedure (HEKA Elektronik Dr. Schulze GmbH). Increasing compound concentrations were applied consecutively to the same cell without washouts in between. Total compound incubation time before the next pulse train was not longer than 10 seconds. Peak current inhibition was observed during compound equilibration.
# AUC and peak values were obtained with Patchmaster (HEKA Elektronik Dr. Schulze GmbH). To determine IC50, the last single pulse in the pulse train corresponding to a given compound concentration was used. Obtained AUC and peak values in the presence of compound were normalized to control values in the absence of compound. Using Origin (OridinLab), IC50 was derived from data fit to Hill equation: Icompound/Icontrol=(100−A)/(1+([compound]/IC50)nH)+A, where IC50 value is the concentration at which current inhibition is half-maximal, [compound] is the applied compound concentration, A is the fraction of current that is not blocked and nH is the Hill coefficient.
# T1 sequence (P22001 whole entry): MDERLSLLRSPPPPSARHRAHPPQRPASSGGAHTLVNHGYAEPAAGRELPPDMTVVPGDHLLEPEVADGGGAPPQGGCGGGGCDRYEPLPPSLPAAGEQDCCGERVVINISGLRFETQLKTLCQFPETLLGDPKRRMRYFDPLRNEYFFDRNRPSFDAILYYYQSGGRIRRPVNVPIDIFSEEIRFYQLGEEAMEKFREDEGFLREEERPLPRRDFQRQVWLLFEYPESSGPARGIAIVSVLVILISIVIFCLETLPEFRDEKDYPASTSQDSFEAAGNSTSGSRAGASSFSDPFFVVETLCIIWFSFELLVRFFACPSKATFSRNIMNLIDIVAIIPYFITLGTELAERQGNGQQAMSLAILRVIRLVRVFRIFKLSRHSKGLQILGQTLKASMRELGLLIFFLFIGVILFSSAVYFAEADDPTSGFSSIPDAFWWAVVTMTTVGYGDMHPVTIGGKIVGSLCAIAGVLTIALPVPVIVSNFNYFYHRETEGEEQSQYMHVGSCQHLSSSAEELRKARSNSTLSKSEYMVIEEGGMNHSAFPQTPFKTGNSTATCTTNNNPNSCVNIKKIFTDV
row,Compound,IC50 [µM]
1,O=C(C1C[C@H](O)[C@@H](O)C1)N1CC[C@]2(C1)C(=O)Nc1cc(Cl)c(Cl)cc12 (relative stereo) [Compound 106],< 1
2,"O=C([C@@H]1C[C@@H]1CO)N1CC[C@]2(C1)C(=O)Nc1cc(Cl)c(Cl)cc12 (relative stereo) [Compound 151, (S)-5,6-dichloro-1′-(1R,2S)-rel-2-(hydroxymethyl)cyclopropane-1-carbonyl)spiro[indoline-3,3′-pyrrolidin]-2-one]",< 1
3,"O=C([C@@H]1CNC[C@@H]1O)N1CC[C@]2(C1)C(=O)Nc1cc(Cl)c(Cl)cc12 (single isomer, unassigned) [Compound 1]",< 1
4,"O=C([C@H]1CNC[C@@H]1O)N1CC[C@]2(C1)C(=O)Nc1cc(Cl)c(Cl)cc12 (single isomer, unassigned) [Compound 4]",< 1
5,"O=C1Nc2cc(Cl)c(Cl)cc2[C@]12CCN(c1ccn[nH]1)C2 (single isomer, unassigned) [Compound 153]",< 3
6,"NC(=O)N1CC[C@]2(C1)C(=O)Nc1cc(Cl)c(Cl)cc12 (single isomer, unassigned) [Compound 154]",< 1
7,"NC(=O)N1CC[C@@]2(C1)C(=O)Nc1cc(Cl)c(Cl)cc12 (single isomer, unassigned) [Compound 155]",< 3
8,"C[C@H]1N(C(=O)CO)CCC12C(=O)Nc1cc(Cl)c(Cl)cc12 (single isomer, unassigned; diastereoisomer 2) [Compound 134, 5,6-dichloro-1′-(2-hydroxyacetyl)-2′-methylspiro[indoline-3,3′-pyrrolidin]-2-one diastereoisomer 2]",< 10
9,"O=C(N1CC[C@]2(C1)C(=O)Nc1cc(Cl)c(Cl)cc12)[C@]1(F)CCNC1 (single isomer, unassigned; isomer 1) [Compound 28]",< 1
10,"O=C(N1CC[C@]2(C1)C(=O)Nc1cc(Cl)c(Cl)cc12)C1(O)CCNC1 (single isomer, unassigned; isomer 1) [Compound 30]",< 1
11,"O=C1Nc2cc(Cl)c(Cl)cc2[C@]12CCN(C(=O)[C@]13CNCC1C3)C2 (single isomer, unassigned; isomer 1) [Compound 32]",< 1
12,"O=C([C@H]1[C@@H]2CN[C@H]1C2)N1CC[C@]2(C1)C(=O)Nc1cc(Cl)c(Cl)cc12 (single isomer, unassigned; isomer 1) [Compound 57]",< 3
13,"O=C([C@@H]1CC[C@H](O)[C@@H](O)C1)N1CC[C@]2(C1)C(=O)Nc1cc(Cl)c(Cl)cc12 (single isomer, unassigned; isomer 1) [Compound 103]",< 1
14,"O=C([C@H]1CC[C@@H](O)[C@H](O)C1)N1CC[C@]2(C1)C(=O)Nc1cc(Cl)c(Cl)cc12 (single isomer, unassigned; isomer 1) [Compound 107]",< 1
15,"O=C(N1CC[C@]2(C1)C(=O)Nc1cc(Cl)c(Cl)cc12)C12CNCC1C2 (single isomer, unassigned; isomer 2) [Compound 33]",< 1
16,"O=C([C@@H]1[C@@H]2CN[C@H]1C2)N1CC[C@]2(C1)C(=O)Nc1cc(Cl)c(Cl)cc12 (single isomer, unassigned; isomer 2) [Compound 58]",< 1
17,"O=C([C@@H]1CC[C@@H](O)C1)N1CC[C@]2(C1)C(=O)Nc1cc(Cl)c(Cl)cc12 (single isomer, unassigned; isomer 2) [Compound 64]",< 3
18,"O=C1CC(C(=O)N2CC[C@]3(C2)C(=O)Nc2cc(Cl)c(Cl)cc23)CN1 (single isomer, unassigned; isomer 2) [Compound 75]",< 3
19,"O=C([C@@H]1CC[C@@](O)(CO)C1)N1CC[C@]2(C1)C(=O)Nc1cc(Cl)c(Cl)cc12 (single isomer, unassigned; isomer 2) [Compound 96]",< 3
20,"O=C([C@H]1CC[C@H](O)[C@@H](O)C1)N1CC[C@]2(C1)C(=O)Nc1cc(Cl)c(Cl)cc12 (single isomer, unassigned; isomer 2) [Compound 108]",< 3
21,"C[C@@H]1C[C@@]2(CN1C(=O)CO)C(=O)Nc1cc(Cl)c(Cl)cc12 (single isomer, unassigned; isomer 2) [Compound 124, 5,6-dichloro-1′-(2-hydroxyacetyl)-5′-methyl-1H-spiro[indole-3,3′-pyrrolidin]-2-one isomer 2]",< 10
22,"O=C([C@H]1CC[C@@H](O)C1)N1CC[C@]2(C1)C(=O)Nc1cc(Cl)c(Cl)cc12 (single isomer, unassigned; isomer 3) [Compound 65]",< 3
23,"C[C@H]1C[C@@]2(CN1C(=O)CO)C(=O)Nc1cc(Cl)c(Cl)cc12 (single isomer, unassigned; isomer 4) [Compound 126, 5,6-dichloro-1′-(2-hydroxyacetyl)-5′-methyl-1H-spiro[indole-3,3′-pyrrolidin]-2-one isomer 4]",< 10

# Next, values leading:
row,IC50 [µM],Compound
1,< 3,"O=C([C@H]1CC[C@H](CO)C1)N1CC[C@]2(C1)C(=O)Nc1cc(Cl)c(Cl)cc12 (relative stereo) [Compound 99, (3S)-5,6-dichloro-1′-[(1R,3R)-rel-3-(hydroxymethyl)cyclopentanecarbonyl]-1H-spiro[indole-3,3′-pyrrolidin]-2-one isomer 1]"
2,< 1,"O=C([C@@H]1C[C@H]1CO)N1CC[C@]2(C1)C(=O)Nc1cc(Cl)c(Cl)cc12 (relative stereo) [Compound 150, (S)-5,6-dichloro-1′-(1R,2R)-rel-2-(hydroxymethyl)cyclopropane-1-carbonyl)spiro[indoline-3,3′-pyrrolidin]-2-one]"
3,< 30,"C[C@@H]1CN(C(=O)CO)CC12C(=O)Nc1cc(Cl)c(Cl)cc12 (single isomer, unassigned; diastereoisomer 1) [Compound 130, 5,6-dichloro-1′-(2-hydroxyacetyl)-4′-methylspiro[indoline-3,3′-pyrrolidin]-2-one diastereoisomer 1]"
4,< 3,"C[C@@H]1N(C(=O)CO)CCC12C(=O)Nc1cc(Cl)c(Cl)cc12 (single isomer, unassigned; diastereoisomer 1) [Compound 133, 5,6-dichloro-1′-(2-hydroxyacetyl)-2′-methylspiro[indoline-3,3′-pyrrolidin]-2-one diastereoisomer 1]"
5,< 1,"C[C@H]1CN(C(=O)CO)CC12C(=O)Nc1cc(Cl)c(Cl)cc12 (single isomer, unassigned; diastereoisomer 2) [Compound 131, 5,6-dichloro-1′-(2-hydroxyacetyl)-4′-methylspiro[indoline-3,3′-pyrrolidin]-2-one diastereoisomer 2]"
6,< 1,"O=C1C[C@H](C(=O)N2CC[C@]3(C2)C(=O)Nc2cc(Cl)c(Cl)cc23)CN1 (single isomer, unassigned; isomer 1) [Compound 74]"
7,< 30,"C[C@H]1C[C@]2(CN1C(=O)CO)C(=O)Nc1cc(Cl)c(Cl)cc12 (single isomer, unassigned; isomer 1) [Compound 123, 5,6-dichloro-1′-(2-hydroxyacetyl)-5′-methyl-1H-spiro[indole-3,3′-pyrrolidin]-2-one isomer 1]"
8,< 3,"O=C(N1CC[C@]2(C1)C(=O)Nc1cc(Cl)c(Cl)cc12)[C@@]1(O)CCNC1 (single isomer, unassigned; isomer 2) [Compound 31]"
9,< 3,"O=C([C@@H]1CC[C@](O)(CO)C1)N1CC[C@]2(C1)C(=O)Nc1cc(Cl)c(Cl)cc12 (single isomer, unassigned; isomer 2) [Compound 98]"
10,< 3,"O=C([C@@H]1CC[C@@H](CO)C1)N1CC[C@]2(C1)C(=O)Nc1cc(Cl)c(Cl)cc12 (single isomer, unassigned; isomer 2) [Compound 100]"
11,< 1,"C[C@@H]1C[C@]2(CN1C(=O)CO)C(=O)Nc1cc(Cl)c(Cl)cc12 (single isomer, unassigned; isomer 3) [Compound 125, 5,6-dichloro-1′-(2-hydroxyacetyl)-5′-methyl-1H-spiro[indole-3,3′-pyrrolidin]-2-one isomer 3]"
12,< 3,"O=C([C@@H]1CC[C@H](O)C1)N1CC[C@]2(C1)C(=O)Nc1cc(Cl)c(Cl)cc12 (single isomer, unassigned; isomer 4) [Compound 66]"
13,< 3,"CN(C)CC(=O)N1CCC2(C1)C(=O)Nc1cc(Cl)c(Cl)cc12 (stereo not drawn) [Compound 7, 5,6-dichloro-1′-(dimethylglycyl)spiro[indoline-3,3′-pyrrolidin]-2-one]"

# From US20240391926A1, “SPIROINDOLINONE COMPOUNDS AS Kv1.3 POTASSIUM SHAKER CHANNEL BLOCKERS” (D.E. Shaw Research, LLC, priority 2021, published 2024)
